As a reminder, the Kd is the equilibrium constant for the complex coming apart.

The target of one assay is HRAS1 G4. Briefly: Microscale thermophoresis (MST) binding to HRAS1 G4. The conditions noted are these: 25°C, 20 nM FITC-labelled peptide, same buffer, n.d. = not determined due to undetectable binding. Set-up: species or system human. The protocol: (§1) MST experiments were conducted using a Monolith NT.115 instrument (NanoTemper Technologies, Munich, Germany) at 25°C with medium MST power settings. […] DNA samples were also diluted using the same buffer supplemented with 0.1% Tween. During MST experiments, the concentration of the labelled peptide was kept constant at 20 nM, while a serial dilution of the investigated DNA molecules (ranging from 10 or 20 μM) was prepared and mixed with the peptide solution in a 1:1 volume ratio. All the samples, with a final concentration of 5% DMSO, were loaded into standard capillaries (NanoTemper Technologies) for MST measurements. Data analysis was carried out using the MO.Affinity Analysis (v2.3) software provided with the instrument.

The target of another assay is c-KIT2 G4. Briefly: Microscale thermophoresis (MST) binding to c-KIT2 G4. On the set-up: species or system human. Particulars: 25°C, 20 nM FITC-labelled peptide, DNA serial dilution, 5 mM KH2PO4/K2HPO4 pH 7.0, 20 mM KCl, 0.1% Tween, 5% DMSO. The protocol:
as §1

The next assay addresses ds12 duplex. Briefly: Microscale thermophoresis (MST) binding to ds12 duplex. The conditions noted are these: 25°C, 20 nM FITC-labelled peptide, same buffer, n.d. = not determined due to undetectable binding. The method, then:
as §1

For another assay, the target named is HT2 G4. Put plainly: Microscale thermophoresis (MST) binding to HT2 G4. The conditions noted are these: 25°C, 20 nM FITC-labelled peptide, DNA serial dilution, 5 mM KH2PO4/K2HPO4 pH 7.0, 20 mM KCl, 0.1% Tween, 5% DMSO. Set-up: species or system human. The method, then:
as §1

Another assay concerns the target HT1 G4. Put plainly: Microscale thermophoresis (MST) binding to HT1 G4. On the set-up: species or system human. Particulars: 25°C, 20 nM FITC-labelled peptide, DNA serial dilution, 5 mM KH2PO4/K2HPO4 pH 7.0, 20 mM KCl, 0.1% Tween, 5% DMSO. The protocol: as §1

In the case of “Ac-NHTGNSIRHRFRVYLSKRL-NH2 [Myb^397–415]”, on HRAS1 G4, the “Kd for binding to HRAS1 G4” value is “negligible binding”. Further, the Kd at c-KIT2 G4 came to 130 nM; on HT2 G4 it was 1180 nM; at HT1 G4, 900 nM. In addition, the “Kd for binding to ds12 duplex” value on ds12 duplex is “negligible”.

The values are drawn from article PMC11229374, “Unlocking the potential of protein-derived peptides to target G-quadruplex DNA: from recognition to anticancer activity” (Nucleic Acids Research, 2024).
